The target in data set [1] is PL^Pro (Severe acute respiratory syndrome coronavirus 2, UniProt P0DTD1). Briefly: SARS-CoV-2 PLpro screening (Ac-LRGG-ACC substrate). In kind it is biochemical. The conditions noted are these: read-out: PL^Pro (%inh)@10μM.
Data set [2] addresses recombinant M^Pro (Severe acute respiratory syndrome coronavirus 2, UniProt P0DTD1). As to the kind of experiment: SARS-CoV-2 Mpro screening and IC50 determination (QS1 fluorogenic substrate, Drag assay). In kind it is biochemical.
Data set [3] addresses Human Recombinant Cathepsin S (Homo sapiens, UniProt P25774). Briefly: Cathepsin selectivity screening, Cat S (Z-Val-Val-Arg-AMC). In kind it is biochemical. Conditions: Z-Val-Val-Arg-AMC substrate.
Data set [4] has as its target Human Recombinant Cathepsin B (Homo sapiens, UniProt P07858). Briefly: Cathepsin selectivity screening, Cat B (Z-Phe-Arg-AMC). The conditions noted are these: Z-Phe-Arg-AMC substrate. In kind it is biochemical.
Data set [5] is described as follows: in vitro. The conditions noted are these: African monkey.
In data set [6] the target is Human Recombinant Cathepsin L (Homo sapiens, UniProt P07711). Briefly: Cathepsin selectivity screening, Cat L (Z-Phe-Arg-AMC). In kind it is biochemical. Conditions: Z-Phe-Arg-AMC substrate.
Data set [7] deals with T1, Human Recombinant Cathepsin K (Homo sapiens, UniProt P43235).
T1 sequence (P43235 115-329): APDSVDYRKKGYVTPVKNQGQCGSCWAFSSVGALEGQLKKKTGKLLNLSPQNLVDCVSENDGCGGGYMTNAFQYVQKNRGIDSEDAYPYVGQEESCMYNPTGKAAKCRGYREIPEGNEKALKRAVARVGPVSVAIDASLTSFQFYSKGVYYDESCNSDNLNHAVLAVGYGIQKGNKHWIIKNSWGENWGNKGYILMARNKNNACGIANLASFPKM
Briefly: Cathepsin selectivity screening, Cat K (Z-Phe-Arg-AMC). In kind it is biochemical. The conditions noted are these: Z-Phe-Arg-AMC substrate.

[8] abbreviates: M^Pro IC50 (μM), recombinant M^Pro, 20 μM QS1 substrate, Table 3.
[9] abbreviates: Table 5, read-out: IC50 (μM) CatS.
The mark [10] stands for this setting: IC50 (μM) M^Pro, recombinant M^Pro, 20 μM QS1 substrate, Table 5.
Setting [11] is: Table 5, read-out: IC50 (μM) CatB.
Setting [12] is: Table 5, read-out: IC50 (μM) CatL.
Setting [13] is: Table 5, read-out: IC50 (μM) CatK.

Read-outs that look alike come from different tables or passages of the source.

Chain of Human Recombinant Cathepsin L (P07711 114-333): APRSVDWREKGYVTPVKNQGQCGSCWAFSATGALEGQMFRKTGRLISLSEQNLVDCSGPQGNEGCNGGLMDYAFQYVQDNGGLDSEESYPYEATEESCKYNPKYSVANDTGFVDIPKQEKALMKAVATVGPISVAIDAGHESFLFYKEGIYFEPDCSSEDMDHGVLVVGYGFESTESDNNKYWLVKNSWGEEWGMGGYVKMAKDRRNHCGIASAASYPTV
Chain of Human Recombinant Cathepsin S (P25774 115-331): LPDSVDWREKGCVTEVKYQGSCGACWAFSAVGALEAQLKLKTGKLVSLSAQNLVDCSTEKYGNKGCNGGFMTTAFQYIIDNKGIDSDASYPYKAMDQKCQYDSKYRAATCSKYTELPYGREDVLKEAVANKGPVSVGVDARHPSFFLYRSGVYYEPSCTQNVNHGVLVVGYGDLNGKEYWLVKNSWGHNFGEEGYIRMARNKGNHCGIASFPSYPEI

Take `COc1ccc(-c2ccc(C(=O)NC3(C(=O)N[C@H](C#N)C[C@@H]4CCNC4=O)CCCCC3)cc2)cc1` [12p]: the inhibition at 10 µM in data set [1] is < 50%; in data set [2] (read-out: M^Pro (%inh)@10μM) it was > 95%.

A word on the IC50: it is the concentration at which inhibition is half-maximal. `CC(C)C[C@H](NC(=O)c1ccc(-c2cccc3nn(C)cc23)cc1F)C(=O)N[C@H](C#N)C[C@@H]1CCNC1=O` [18a]: the IC50 in data set [3] (Table 4, read-out: CatS IC50) is 0.0279 µM; in data set [2] (M^Pro IC50 (nM), Table 4) it was 163 nM; in data set [2] (setting [8]) it was 162 nM; in data set [4] (Table 4, read-out: CatB IC50) it was 0.142 µM; in data set [6] (Table 4, read-out: CatL IC50) it was > 10 µM; in data set [7] (Table 4, read-out: CatK IC50), 0.0485 µM. Moreover, in data set [5], the CC50 was > 100000 nM.

In the case of `COc1ccc(-c2ccc(C(=O)N[C@@H](CC(C)C)C(=O)N[C@H](C#N)C[C@@H]3CCNC3=O)c(F)c2)cc1` [18b], the half-inhibitory concentration (IC50) was 0.232 µM in data set [3] (Table 4, read-out: CatS IC50); 178 nM in data set [2] (M^Pro IC50 (nM), Table 4); 178 nM in data set [2] (setting [8]); 0.106 µM in data set [4] (Table 4, read-out: CatB IC50); > 10 µM in data set [6] (Table 4, read-out: CatL IC50); 0.077 µM in data set [7] (Table 4, read-out: CatK IC50). For the same compound, the CC50 in data set [5] was 51600 nM.

On to `CC(C)C[C@H](NC(=O)c1ccc(-c2ccc3c(cnn3C)c2)cc1F)C(=O)N[C@H](C#N)C[C@@H]1CCNC1=O` [18c], for which, in data set [2] (setting [8]), the IC50 turned out to be 307 nM. Moreover, the CC50 in data set [5] was > 100000 nM.

On to `COc1ccc(-c2ccc(C(=O)N[C@@H](CC(C)C)C(=O)N[C@H](C#N)C[C@@H]3CCNC3=O)c(C)c2)cc1` [18k], for which the IC50 in data set [2] (setting [8]) was 85 nM. For the same compound, the CC50 in data set [5] was > 100000 nM.

On to `COc1ccc(-c2ccc(C(=O)N[C@@H](CC(C)C)C(=O)N[C@H](C#N)C[C@@H]3CCNC3=O)c(C(F)(F)F)c2)cc1` [18m], for which the IC50 in data set [2] (setting [8]) was determined as 96 nM. In addition, in data set [5], the CC50 was found to be 70600 nM.

With `CC(C)C[C@H](NC(=O)c1ccc(-c2ccc3c(cnn3C)c2)cc1Cl)C(=O)N[C@H](C#N)C[C@@H]1CCNC1=O` [18o], the IC50 in data set [2] (setting [8]) was 52 nM. The compound also returned a CC50 in data set [5] of 83500 nM.

With `CC(C)C[C@H](NC(=O)c1ccc(-c2cccc3nn(C)cc23)cc1Cl)C(=O)N[C@H](C#N)C[C@@H]1CCNC1=O` [18p], the half-maximal inhibitory concentration (IC50) in data set [2] (setting [8]) amounted to 68 nM. Besides, in data set [5], the CC50 is > 100000 nM.

Turning to `CC(C)C[C@H](NC(=O)c1ccc(-c2ccc3cnn(C)c3c2)cc1Cl)C(=O)N[C@H](C#N)C[C@@H]1CCNC1=O` [18q], the IC50 in data set [2] (setting [8]) is 53 nM. In data set [5], this compound had a CC50 of 77400 nM.

Consider `COc1ccc(-c2ccc(C(=O)N[C@@H](CC(C)C)C(=O)N[C@H](C#N)C[C@@H]3CCNC3=O)c(Cl)c2)cc1` [18r], for which the IC50 in data set [3] (Table 4, read-out: CatS IC50) was 0.0246 µM; in data set [2] (M^Pro IC50 (nM), Table 4), 45 nM; in data set [2] (setting [8]), 45 nM; in data set [4] (Table 4, read-out: CatB IC50) it was 0.193 µM; in data set [6] (Table 4, read-out: CatL IC50) it was > 10 µM; in data set [7] (Table 4, read-out: CatK IC50), 0.123 µM. In data set [5], the CC50 worked out at 40100 nM.

With `COc1ccc(-c2ccc(C(=O)N3C[C@@H]4CCC[C@@H]4[C@H]3C(=O)N[C@H](C#N)C[C@@H]3CCNC3=O)c(Cl)c2)cc1` [22k], the 50% inhibitory concentration (IC50) is 0.718 µM in data set [3] (setting [9]); 743 nM in data set [2] (setting [10]); > 10 µM in data set [4] (setting [11]); > 10 µM in data set [6] (setting [12]); 0.68 µM in data set [7] (setting [13]).

Take `COc1cccc(-c2ccc(C(=O)N3C[C@@H]4CCC[C@@H]4[C@H]3C(=O)N[C@H](C#N)C[C@@H]3CCNC3=O)c(Cl)c2)c1` [22l]: the IC50 was 0.538 µM in data set [3] (setting [9]); 1060 nM in data set [2] (setting [10]); > 10 µM in data set [4] (setting [11]); > 10 µM in data set [6] (setting [12]); 1.07 µM in data set [7] (setting [13]).

For the compound `COc1ccc(-c2ccc(C(=O)N[C@@H](CC3CCCCC3)C(=O)N[C@H](C#N)C[C@@H]3CCNC3=O)c(F)c2)cc1` [23a], the half-inhibitory concentration (IC50) is 0.016 µM in data set [3] (setting [9]); 807 nM in data set [2] (setting [10]); > 10 µM in data set [4] (setting [11]); > 10 µM in data set [6] (setting [12]); > 10 µM in data set [7] (setting [13]).

In the case of `COc1cccc(-c2ccc(C(=O)N[C@@H](CC3CCCCC3)C(=O)N[C@H](C#N)C[C@@H]3CCNC3=O)c(F)c2)c1` [23b], the half-maximal inhibitory concentration (IC50) was 0.059 µM in data set [3] (setting [9]); 691 nM in data set [2] (setting [10]); 0.238 µM in data set [4] (setting [11]); > 10 µM in data set [6] (setting [12]); 1.34 µM in data set [7] (setting [13]).

For the compound `CC(C)(C)[C@H](NC(=O)C(F)(F)F)C(=O)N1C[C@H]2[C@@H]([C@H]1C(=O)N[C@H](C#N)C[C@@H]1CCNC1=O)C2(C)C` [nirmatrelvir, reference compound], in data set [5], the CC50 was > 100000 nM.

The values are drawn from article PMC12516390 (ACS Medicinal Chemistry Letters, 2025).
